Reference: patent US20110312495A1, “SYNERGISTIC HERBICIDAL COMPOSITION CONTAINING CLOPYRALID AND FLORASULAM” (DOW AGROSCIENCES LLC, priority 2010, published 2011)

What was measured:
Test in all cases: Postemergence herbicidal activity under field conditions, visual weed control
Format in all cases: in vivo
Details in all cases: field trial #1, 45 to 92 days after application
[1] = system: field forget-me-not (Myosotis arvensis, MYOAR)
Protocol: (§1) These trials were conducted under field conditions in Germany. Trial sites were located in commercially grown winter barley and winter rye. The crops were grown using normal cultural practices for fertilization, seeding, and maintenance to ensure good growth of the crop and the weeds. The trials were conducted using normal research methodology. Trial plots were between 2.5 to 3 meters (m) wide by 6 to 10 m long. All treatments were applied using a randomized complete block trial design with 3 replications per treatment. The trial sites had naturally occurring populations of weeds. The weed spectrum included, but was not limited to, scentless mayweed (Matricaria inodora, MATIN), field forget-me-not (Myosotis arvensis, MYOAR), and Bachelor's button (Centaurea cyanus, CENCY).
(§2) Treatments consisted of formulated products applied in water. The application volumes were 200 liter per hectare (L/ha). All application were made using precision bicycle sprayers using a 3 m boom using flat fan (80° or 110°) nozzles to broadcast the treatments on the testing plots.
(§3) The treated plots and control plots were rated blind at various intervals after application. Ratings were based of Percent (%) Visual weed control, where 0 corresponds to no injury and 100 corresponds to complete kill. […]

[2] = system: scentless mayweed (Matricaria inodora, MATIN)
Protocol: as §1, §2, §3

[3] = system: Bachelor's button (Centaurea cyanus, CENCY)
Protocol: as §1, §2, §3

SMILES	MYOAR Obs - Percent control observed ([1]; florasulam 2.5 g ai/ha alone)	MYOAR Obs - Percent control observed ([1]; florasulam 3.75 g ai/ha alone)	MYOAR Obs - Percent control observed ([1]; florasulam 5 g ai/ha alone)	MATIN Obs - Percent control observed ([2]; florasulam 2.5 g ai/ha alone)	MATIN Obs - Percent control observed ([2]; florasulam 3.75 g ai/ha alone)	MATIN Obs - Percent control observed ([2]; florasulam 5 g ai/ha alone)	CENCY Obs - Percent control observed ([3]; florasulam 2.5 g ai/ha alone)	CENCY Obs - Percent control observed ([3]; florasulam 3.75 g ai/ha alone)	CENCY Obs - Percent control observed ([3]; florasulam 5 g ai/ha alone)	MYOAR Obs - Percent control observed ([1]; clopyralid 30 g ae/ha alone)	MYOAR Obs - Percent control observed ([1]; clopyralid 45 g ae/ha alone)	MYOAR Obs - Percent control observed ([1]; clopyralid 60 g ae/ha alone)	MATIN Obs - Percent control observed ([2]; clopyralid 30 g ae/ha alone)	MATIN Obs - Percent control observed ([2]; clopyralid 45 g ae/ha alone)	MATIN Obs - Percent control observed ([2]; clopyralid 60 g ae/ha alone)	CENCY Obs - Percent control observed ([3]; clopyralid 30 g ae/ha alone)	CENCY Obs - Percent control observed ([3]; clopyralid 45 g ae/ha alone)	CENCY Obs - Percent control observed ([3]; clopyralid 60 g ae/ha alone)
COc1ncc(F)c2nc(S(=O)(=O)Nc3c(F)cccc3F)nn12 [Florasulam, 2′,6′,8-trifluoro-5-methoxy[1,2,4]triazolo[1,5-c]-pyrimidine-2-sulfonanilide]	50%	50%	67%	60%	67%	53%	20%	40%	70%									
O=C(O)c1nc(Cl)ccc1Cl [Clopyralid, 3,6-dichloropyridine-2-carboxylic acid]										0%	0%	0%	0%	50%	58%	37%	57%	73%
